Laboratory results from patent US20060111305A1, “Metabolites of certain [1,4]diazepino[6,7,1-ij]quinoline derivatives and methods of preparation and use thereof” (Wyeth, priority 2004, published 2006).

Legend:
[1] = Dog fecal excretion and metabolite profiles after oral capsule of [14C]DCDQ; format: in vivo, beagle dogs
Experimental: Blood samples were collected from the jugular vein at 2, 4, 8, 24 and 48 hour after dose administration into tubes containing potassium EDTA as the anticoagulant and then placed on ice. Aliquots of 50 μL were removed for combustion and determination of radioactivity content. Plasma was immediately obtained from the remaining blood by centrifugation at 4° C. Urine samples were collected into tubes on dry ice at intervals of 0-8, 8-24 and 24-48 hour post-dose. Fecal samples were collected at intervals of 0-8, 8-24 and 24-48 hour post-dose at room temperature, and were homogenized. The biological specimens were stored at approximately −70° C. until analysis.
Feces were weighed and homogenized in water at a volume-to-weight ratio of about 5:1. Aliquots of blood (200 μL) and fecal homogenates (0.25-0.53 gram) were placed on Combusto-cones with Combusto-pads and combusted. A model 307 Tri-Carb sample oxidizer, equipped with an Oximate-80 robotic automatic sampler (Perkin Elmer), was used for combustion of blood and fecal samples. The liberated ^14CO2 was trapped with Carbo-Sorb E carbon dioxide absorber, mixed with PermaFluor® E+ liquid scintillation cocktail, and counted on a Tri-Carb Model 3100 TR/LL liquid scintillation counter (Perkin Elmer). The efficiency of combustion was 98.9%.
Fecal homogenates were analyzed for metabolite profiles. Aliquots of 1 gram of fecal homogenate were mixed with 2 mL methanol, placed on ice for about 10 minutes and centrifuged. The supernatant was transferred to a clean tube. The residue was extracted three times with 2 mL of a water:methanol (3:7) mixture. The supernatants from each sample were combined, evaporated to about 1 mL, and centrifuged. Extraction efficiency was determined by analyzing aliquots of 10 μL of the supernatant for radioactivity. An aliquot (50-200 μL) of the supernatant was analyzed by HPLC with radioactivity flow detection for metabolite profiles. Samples were also analyzed by LC/MS to characterize the radioactive peaks.
A Waters model 2690 HPLC system (Waters Corp., Milford, Mass.) with a built-in autosampler was used for analysis. Separations were accomplished on a Phenomenex Luna C18(2) column (150×2.0 mm, 5 μm) (Phenomenex, Torrance, Calif.). The sample chamber of the autosampler was maintained at 4° C., while the column was at ambient temperature of about 20° C. A variable wavelength UV detector set to monitor 250 nm and a Flo-One β Model A525 radioactivity detector were used for data acquisition. The HPLC mobile phase consisted of 10 mM ammonium acetate, pH 4.5 (A) and acetonitrile (B), and was delivered at 0.2 mL/min. Chromatographic condition A was used for dose analysis, while condition B was used for analysis of urine and plasma, brain and fecal extracts.

[2] = Metabolite profiles of DCDQ in human plasma and urine by LC/MS (Table 33); format: in vivo, healthy human subjects; details: human plasma and urine, healthy subjects receiving DCDQ
Experimental: Drug administration and specimen collection were performed in a randomized, double-blinded, placebo-controlled, ascending single dose study of the safety, tolerability, pharmacokinetics, and pharmacodynamics of DCDQ administered orally to healthy subjects and subjects with schizophrenia and schizoaffective disorder. The specimens were stored at approximately −70° C. until analysis for metabolite profiles and for ratios of carbamoyl glucuronide (M6) to DCDQ.
Two subjects with medium and high exposure to DCDQ in the 25 mg multiple ascending dose study were also analyzed by LC/MS for metabolite profiles. The 8 hr plasma samples collected on day 1 and day 14 from subjects 9 and 41 were processed and analyzed as described below. No internal standard was added to the samples analyzed for metabolite profiles.
LC/MS System 1 was used for analysis of plasma and urine samples for metabolite characterization. The HPLC equipment used with this LC/MS System consisted of an Agilent Model 1100 HPLC system (Agilent Technologies, Palo Alto, Calif.) including an autosampler, binary pump and diode array UV detector. The UV detector was set to monitor 210 to 350 nm. The HPLC mobile phase consisted of 10 mM ammonium acetate, pH 4.5 (A) and methanol (B), and was delivered at 0.2 mL/min. The linear mobile phase gradient (HPLC Gradient 1) is shown below. During LC/MS sample analysis, up to 6 min of the initial flow was diverted away from the mass spectrometer prior to evaluation of metabolites.
The mass spectrometer used for metabolite characterization with LC/MS System 1 was a Finnigan LCQ-Deca ion trap mass spectrometer (Thermo Electron, San Jose, Calif.). This mass spectrometer was equipped with an electrospray ionization (ESI) interface and operated in the positive ionization mode. Settings for the LCQ mass spectrometer are listed below.
LC/MS System 2 was used to provide additional MS/MS data for characterization of DCDQ metabolites in urine. The HPLC equipment used with LC/MS System 2 consisted of a Waters model 2695 HPLC system (Waters Corp., Milford, Mass.). It was equipped with a built-in autosampler and a model 996 diode array UV detector. The UV detector was set to monitor 210-400 nm. The HPLC column, mobile phases, flow rate, diversion of flow away from the mass spectrometer and gradient were as described above for LC/MS System 1. The column temperature was 25° C.
The mass spectrometer used for metabolite characterization with LC/MS System 2 was a Micromass Quattro Micro triple quadrupole mass spectrometer (Waters Corp.). This mass spectrometer was equipped with an electrospray interface and operated in the positive ionization mode. Settings for this mass spectrometer are listed below.

[3] = tested on: cryopreserved human hepatocytes; assay: Incubation of [14C]DCDQ with cryopreserved human hepatocytes; format: in vitro ADME; details: 10 or 50 μM DCDQ, 4 hours
Experimental: Vials containing cryopreserved human hepatocytes were thawed in a 37° C. water bath with gentle shaking until the ice was almost melted. The vials were removed from the water bath and gentle shaking continued at room temperature for 30-60 seconds until completely thawed. The hepatocyte suspensions from each vial were immediately transferred to pre-cooled 50 mL beakers on ice. To each beaker, 12 mL of ice-cold hepatocyte suspension media was added dropwise over one minute, with occasional, gentle shaking by hand to prevent the cells from settling. The cell suspensions were transferred to a 15 mL tube and centrifuged at 100 g force for 3 min at 4° C. (Model T21 super centrifuge, Sorvall). The supernatant was discarded and the pellets were re-suspended in 4 mL of ice-cold hepatocyte culture media. The cell suspensions contained approximately 3.1×10^6 viable hepatocytes/mL. The average viability was 76.0% as determined using Trypan Blue exclusion and a hemacytometer.
The cell suspensions were distributed into 12-well plates at 1.0 mL per well. Incubations were performed using pooled hepatocytes from two donors. [^14C]DCDQ in water was added to the hepatocyte suspension at a final concentration of 10 or 50 μM. Incubations were carried out at 37° C. for 4 hours in an incubator supplied with 5% CO2. At the end of the incubation, the reaction was stopped by the addition of 200 μL cold methanol to each well. The content of each well was transferred to a 15 mL centrifuge tube and sonicated for 30 seconds. After vortex mixing with 6 mL methanol and then centrifugation, the supernatant was transferred to a clean tube and evaporated to about 0.5 mL in a TurboVap evaporator. The residue was analyzed by HPLC and LC/MS.
A Waters model 2690 HPLC system (Waters Corp., Milford, Mass.) with a built-in autosampler was used for analysis. […] A variable wavelength UV detector set to monitor 250 nm and Flo-One β Model A525 radioactivity flow detector (Perkin Elmer) with a 250 μL LQTR flow cell were used for data acquisition. […]

[4] = Metabolites of DCDQ generated by liver microsomes and hepatocytes, LC/MS characterization (Table 6); format: in vitro ADME; details: MM mouse, RM rat, DM dog, HM human liver microsomes; HH human hepatocytes
From the text: An Agilent Model 1100 HPLC system (Agilent Technologies, Palo Alto, Calif.) including an autosampler and diode array UV detector was used for LC/MS analysis. The UV detector was set to monitor 200 to 400 nm. For selected LC/MS analysis, radiochromatograms were acquired using a β-Ram model 3 radioactivity flow detector (IN/US Systems Inc., Tampa, Fla.) equipped with a solid scintillant flow cell. Separations were accomplished on a Phenomenex Luna C18(2) column (2×150 mm, 5 μm) under the same conditions as described above.
The mass spectrometer used for metabolite characterization was a Micromass Q-TOF-2 quadrupole time-of-flight hybrid mass spectrometer ([…].). The mass spectrometer was equipped with an electrospray ionization (ESI) interface and operated in the positive ionization mode. Collision energy settings of 5 and 30 eV were used for full MS and MS/MS scans, respectively. Settings for the mass spectrometer are listed below.
Mass spectra were obtained by LC/MS and LC/MS/MS analysis for DCDQ and its metabolites.

O=C1NCCN2C[C@@H]3CCC[C@@H]3c3cccc1c32 [Metabolite M18, keto DCDQ]
% of total radioactivity in fecal extracts [1]: up to 16.4% | metabolite detected in feces [1]: detected

C1=NCCN2C[C@@H]3CCC[C@@H]3c3cccc1c32 [Metabolite P3, DCDQ imine]
Matrix (in which DCDQ / metabolite was characterized by LC/MS) [2]: P, U | metabolite detected in human hepatocyte incubations [3]: observed | Source [4]: MM, RM, DM, HM, HH
